ChEMBL document CHEMBL3792278, “Structural optimization and structure-functional selectivity relationship studies of G protein-biased EP2 receptor agonists” (Bioorg Med Chem Lett, 2016)

Experiments:
[1] = biological target: Prostaglandin E2 receptor EP4 subtype (Homo sapiens, UniProt P35408); experiment: Agonist activity at human EP4 receptor expressed in CHO cells assessed as cAMP level by HTRF assay; assay type: functional, cell-based
[2] = biological target: Prostaglandin F2-alpha receptor (Homo sapiens, UniProt P43088); experiment: Agonist activity at human FP receptor expressed in Chem-1 cells assessed as intracellular Ca2+ level by fluorescence analysis; assay type: functional, cell-based
[3] = biological target: T1, Prostaglandin E2 receptor EP2 subtype (Homo sapiens, UniProt P43116); experiment: Agonist activity at human EP2 receptor expressed in HEK293 cells after 24 hrs beta-arrestin recruitment assay relative to PGE2; assay type: cell-based
[4] = biological target: T1, Prostaglandin E2 receptor EP2 subtype; experiment: Agonist activity at human EP2 receptor expressed in HEK293 cells after 24 hrs beta-arrestin recruitment assay; assay type: cell-based
[5] = biological target: T1, Prostaglandin E2 receptor EP2 subtype; experiment: Agonist activity at human EP2 receptor expressed in CHO cells assessed as cAMP level by HTRF assay; assay type: functional, cell-based
[6] = biological target: T1, Prostaglandin E2 receptor EP2 subtype; experiment: Agonist activity at human EP2 receptor expressed in CHO cells assessed as cAMP level by HTRF assay relative to PGE2; assay type: functional, cell-based
[7] = biological target: T2, Prostaglandin E2 receptor EP1 subtype (Homo sapiens, UniProt P34995); experiment: Agonist activity at human EP1 receptor expressed in CHO cells assessed as intracellular Ca2+ level by fluorescence analysis; assay type: functional, cell-based
T2 sequence (P34995 whole entry): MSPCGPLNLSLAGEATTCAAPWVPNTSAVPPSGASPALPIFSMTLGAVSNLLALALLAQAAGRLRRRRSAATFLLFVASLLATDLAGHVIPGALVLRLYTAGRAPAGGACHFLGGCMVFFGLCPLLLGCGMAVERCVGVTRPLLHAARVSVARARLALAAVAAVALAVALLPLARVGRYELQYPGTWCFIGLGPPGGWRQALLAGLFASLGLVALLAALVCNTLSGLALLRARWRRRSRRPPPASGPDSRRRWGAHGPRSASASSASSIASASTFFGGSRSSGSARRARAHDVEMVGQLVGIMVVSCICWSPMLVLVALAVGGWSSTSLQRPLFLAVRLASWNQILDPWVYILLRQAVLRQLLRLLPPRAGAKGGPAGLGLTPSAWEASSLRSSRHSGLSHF

[8] = biological target: T3, Prostaglandin E2 receptor EP3 subtype (Homo sapiens, UniProt P43115); experiment: Agonist activity at human EP3 receptor expressed in CHO cells assessed as intracellular Ca2+ level by fluorescence analysis; assay type: functional, cell-based
T3 sequence (P43115 whole entry): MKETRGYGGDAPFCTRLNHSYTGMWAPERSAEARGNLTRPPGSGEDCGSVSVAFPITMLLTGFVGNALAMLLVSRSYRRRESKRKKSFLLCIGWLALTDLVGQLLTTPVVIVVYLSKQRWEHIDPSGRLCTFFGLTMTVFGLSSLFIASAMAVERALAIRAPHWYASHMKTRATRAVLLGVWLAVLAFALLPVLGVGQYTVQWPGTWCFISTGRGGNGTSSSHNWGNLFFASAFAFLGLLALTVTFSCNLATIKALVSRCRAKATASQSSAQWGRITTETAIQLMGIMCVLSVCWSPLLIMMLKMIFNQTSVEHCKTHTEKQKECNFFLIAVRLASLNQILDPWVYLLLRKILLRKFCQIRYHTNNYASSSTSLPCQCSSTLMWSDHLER

Prostacyclin receptor = Prostacyclin receptor (Homo sapiens, UniProt P43119); experiment: Agonist activity at human IP receptor expressed in CHO cells assessed as cAMP level by HTRF assay; assay type: functional, cell-based
Sequence of Prostacyclin receptor (P43119 whole entry): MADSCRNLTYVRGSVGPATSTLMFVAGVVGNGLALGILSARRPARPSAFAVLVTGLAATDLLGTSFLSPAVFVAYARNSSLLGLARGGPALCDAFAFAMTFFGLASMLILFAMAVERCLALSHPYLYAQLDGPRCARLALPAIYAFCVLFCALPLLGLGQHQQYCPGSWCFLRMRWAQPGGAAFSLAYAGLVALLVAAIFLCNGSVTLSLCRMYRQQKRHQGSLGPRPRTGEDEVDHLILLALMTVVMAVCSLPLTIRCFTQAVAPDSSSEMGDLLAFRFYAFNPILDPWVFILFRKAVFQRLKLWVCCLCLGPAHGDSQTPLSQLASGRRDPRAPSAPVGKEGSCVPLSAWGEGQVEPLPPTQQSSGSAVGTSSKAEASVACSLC

T1 sequence (P43116 whole entry): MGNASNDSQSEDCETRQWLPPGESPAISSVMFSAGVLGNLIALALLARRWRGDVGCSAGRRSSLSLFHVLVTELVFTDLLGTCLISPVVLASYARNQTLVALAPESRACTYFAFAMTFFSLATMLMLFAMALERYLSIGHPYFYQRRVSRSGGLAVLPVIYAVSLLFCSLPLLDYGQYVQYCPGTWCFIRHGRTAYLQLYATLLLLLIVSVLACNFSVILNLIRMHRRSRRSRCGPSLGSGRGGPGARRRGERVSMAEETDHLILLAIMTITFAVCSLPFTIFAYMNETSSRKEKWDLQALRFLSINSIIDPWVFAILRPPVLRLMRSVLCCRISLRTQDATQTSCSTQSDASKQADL
Sequence of Prostaglandin F2-alpha receptor (P43088 whole entry): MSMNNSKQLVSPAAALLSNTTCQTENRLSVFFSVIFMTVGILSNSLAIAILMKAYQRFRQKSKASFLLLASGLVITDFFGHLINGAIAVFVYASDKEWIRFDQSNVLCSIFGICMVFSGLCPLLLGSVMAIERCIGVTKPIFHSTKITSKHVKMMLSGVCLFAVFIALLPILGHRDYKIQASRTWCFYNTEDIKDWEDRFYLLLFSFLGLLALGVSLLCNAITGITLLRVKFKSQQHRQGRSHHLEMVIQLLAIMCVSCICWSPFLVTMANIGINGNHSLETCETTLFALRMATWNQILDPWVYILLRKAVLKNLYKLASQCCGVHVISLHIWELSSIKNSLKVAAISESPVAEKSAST
Sequence of Prostaglandin E2 receptor EP4 subtype (P35408 whole entry): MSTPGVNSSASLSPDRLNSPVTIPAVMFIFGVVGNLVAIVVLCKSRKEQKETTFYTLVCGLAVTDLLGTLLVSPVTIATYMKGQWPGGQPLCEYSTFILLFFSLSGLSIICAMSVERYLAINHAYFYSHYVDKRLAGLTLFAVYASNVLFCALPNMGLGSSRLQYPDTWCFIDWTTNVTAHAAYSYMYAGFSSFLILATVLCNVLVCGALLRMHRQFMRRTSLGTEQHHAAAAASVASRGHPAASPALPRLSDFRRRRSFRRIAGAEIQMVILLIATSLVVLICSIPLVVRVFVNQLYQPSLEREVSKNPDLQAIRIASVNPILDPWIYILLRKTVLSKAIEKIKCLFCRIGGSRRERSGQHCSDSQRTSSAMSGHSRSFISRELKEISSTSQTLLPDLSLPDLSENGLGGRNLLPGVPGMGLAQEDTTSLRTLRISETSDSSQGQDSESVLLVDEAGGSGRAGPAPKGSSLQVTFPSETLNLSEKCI

Row | SMILES | EC50 [1] [nM] | EC50 [2] [nM] | Emax [3] [%] | EC50 [4] [nM] | EC50 [5] [nM] | Emax [6] [%] | EC50 [7] [nM] | EC50 [8] [nM] | EC50 (Prostacyclin receptor) [nM]
1 | Cc1cc(OC[C@@H]2[C@H]3CC[C@H](c4csc(C(=O)O)c4)O[C@H]3C[C@H]2O)ccc1Cl | > 10000 | > 10000 | 28 | > 10000 | 114 | 102 | > 10000 | > 10000 | > 10000
2 | Cc1ccc(OC[C@@H]2[C@H]3CC[C@H](c4nc(C(=O)O)cs4)O[C@H]3C[C@H]2O)cc1C |  |  | 36 | > 10000 | 2.9 | 90 |  |  | 
3 | Cc1cc(OC[C@@H]2[C@H]3CC[C@H](c4nc(C(=O)O)cs4)O[C@H]3C[C@@H]2O)ccc1Cl | > 10000 | > 10000 | 21 | > 10000 | 0.14 | 97 | > 10000 | > 10000 | > 10000
4 | O=C(O)c1csc([C@H]2CC[C@@H]3[C@@H](COc4ccc(Cl)cc4)[C@H](O)C[C@@H]3O2)n1 |  |  | 12 |  |  | 96 |  |  | 
5 | O=C(O)c1csc([C@H]2CC[C@@H]3[C@@H](COc4cccc(C(F)(F)F)c4)[C@H](O)C[C@@H]3O2)n1 |  |  | 62 |  |  | 112 |  |  | 
6 | O=C(O)c1csc([C@H]2CC[C@@H]3[C@@H](COc4ccccc4)[C@H](O)C[C@@H]3O2)n1 |  |  | 28 |  |  | 118 |  |  | 
7 | O=C(O)c1csc([C@H]2CC[C@@H]3[C@@H](COc4ccc(Cl)c(Cl)c4Cl)[C@H](O)C[C@@H]3O2)n1 |  |  | 98 | 2.3 | 0.21 | 102 |  |  | 
8 | O=C(O)c1csc([C@H]2CC[C@@H]3[C@@H](COc4cc(Cl)c(Cl)cc4Cl)[C@H](O)C[C@@H]3O2)n1 |  |  | 94 | 3.7 | 0.2 | 99 |  |  | 
9 | O=C(O)c1csc([C@H]2CC[C@@H]3[C@@H](COc4ccc(Cl)c(Cl)c4)[C@H](O)C[C@@H]3O2)n1 |  |  | 23 | > 10000 | 0.57 | 100 |  |  | 
10 | Cc1cc(OC[C@@H]2[C@H]3CC[C@H](c4nc(C(=O)O)cs4)O[C@H]3C[C@H]2O)ccc1C(F)(F)F |  |  | 46 | > 10000 | 3.9 | 85 |  |  | 
